Laboratory results from patent US7371864B2, “Crystalline forms of a factor Xa inhibitor” (Bristol-Myers Squibb Company, priority 2004, dated 2008).

Experiments:
[1] = Moisture sorption isotherms (VTI SGA-100 Symmetric Vapor Analyzer); format: physicochemical; settings: 25° C., 4-95% RH
Procedure: Moisture sorption isotherms for N-1 were collected in a VTI SGA-100 Symmetric Vapor Analyzer using about 10 mg sample. The sample was dried at 60° C. until the loss rate of 0.0005 wt %/min was obtained for 10 minutes. The sample was tested at 25° C. and 4, 5, 15, 25, 35, 45, 50, 65, 75, 85, and 95% RH. Equilibration at each RH was reached when the rate of 0.0003 wt %/min for 35 minutes or a maximum of 600 minutes was achieved.

[2] = Relative thermodynamic stability of crystalline forms; format: physicochemical

- hygroscopicity from moisture sorption isotherms [1]: essentially non-hygroscopic
- stability relative to Form N-3 (monotropic relationship) ([2]; all temperatures, inferred from Form N-3 melting ˜40° C. lower than Form N-1): more stable at all temperatures
- thermodynamic stability relative to other crystalline forms ([2]; room temperature): thermodynamically more stable form
SMILES: COc1ccc(-n2nc(C(C)(C)O)c3c2C(=O)N(c2ccc(-n4ccccc4=O)cc2)CC3)cc1 [Form N-1, 3-(1-hydroxy-1-methyl-ethyl)-1-(4-methoxy-phenyl)-6-[4-(2-oxo-2H-pyridin-1-yl)-phenyl]-1,4,5,6-tetrahydro-pyrazolo[3,4-c]pyridin-7-one]
